Test results: patent US20250332266A1, “COMPOUNDS FOR THE DEGRADATION OF EGFR KINASE” (BeiGene Switzerland GmbH, priority 2022, published 2025)

Legend:
[1] = biological target: T1, EGFR L858R/T790M/C797S (H1975-clone #25) (Homo sapiens, UniProt P00533, C797S/L858R/T790M); test: EGFR degradation, HTRF total-EGFR assay, H1975-clone #25 (LTC); type: cell-based; conditions: H1975-clone #25 L858R/T790M/C797S, 16 h treatment
T1 construct: expressed in transfected cells; host or cells: H1975 (clone #25), lentiviral transduction, endogenous EGFR knocked out
Procedure, shortened: (§1)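 H1975 clones with endogenous EGFR knocked out and homozygous exogenous EGFR mutants (#28 Del19/T790M/C797S; #25 L858R/T790M/C797S) treated 16 h at 37 °C, 8 doses, 5-fold from 10 μM, 0.2% DMSO. Total EGFR measured by HTRF on lysates, normalised to DMSO controls; DC50 and Dmax from curve fit.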

[2] = biological target: EGFR Del19/T790M/C797S (H1975-clone #28) (Homo sapiens, UniProt P00533, T790M/C797S, form not given); test: EGFR degradation, HTRF total-EGFR assay, H1975-clone #28 (DTC); type: cell-based; conditions: H1975-clone #28 Del19/T790M/C797S, 16 h treatment
Procedure, shortened: as §1

Chain of EGFR Del19/T790M/C797S (H1975-clone #28) (P00533 with tags, fused parts or gaps DEL746-750/T790M/C797S, form open): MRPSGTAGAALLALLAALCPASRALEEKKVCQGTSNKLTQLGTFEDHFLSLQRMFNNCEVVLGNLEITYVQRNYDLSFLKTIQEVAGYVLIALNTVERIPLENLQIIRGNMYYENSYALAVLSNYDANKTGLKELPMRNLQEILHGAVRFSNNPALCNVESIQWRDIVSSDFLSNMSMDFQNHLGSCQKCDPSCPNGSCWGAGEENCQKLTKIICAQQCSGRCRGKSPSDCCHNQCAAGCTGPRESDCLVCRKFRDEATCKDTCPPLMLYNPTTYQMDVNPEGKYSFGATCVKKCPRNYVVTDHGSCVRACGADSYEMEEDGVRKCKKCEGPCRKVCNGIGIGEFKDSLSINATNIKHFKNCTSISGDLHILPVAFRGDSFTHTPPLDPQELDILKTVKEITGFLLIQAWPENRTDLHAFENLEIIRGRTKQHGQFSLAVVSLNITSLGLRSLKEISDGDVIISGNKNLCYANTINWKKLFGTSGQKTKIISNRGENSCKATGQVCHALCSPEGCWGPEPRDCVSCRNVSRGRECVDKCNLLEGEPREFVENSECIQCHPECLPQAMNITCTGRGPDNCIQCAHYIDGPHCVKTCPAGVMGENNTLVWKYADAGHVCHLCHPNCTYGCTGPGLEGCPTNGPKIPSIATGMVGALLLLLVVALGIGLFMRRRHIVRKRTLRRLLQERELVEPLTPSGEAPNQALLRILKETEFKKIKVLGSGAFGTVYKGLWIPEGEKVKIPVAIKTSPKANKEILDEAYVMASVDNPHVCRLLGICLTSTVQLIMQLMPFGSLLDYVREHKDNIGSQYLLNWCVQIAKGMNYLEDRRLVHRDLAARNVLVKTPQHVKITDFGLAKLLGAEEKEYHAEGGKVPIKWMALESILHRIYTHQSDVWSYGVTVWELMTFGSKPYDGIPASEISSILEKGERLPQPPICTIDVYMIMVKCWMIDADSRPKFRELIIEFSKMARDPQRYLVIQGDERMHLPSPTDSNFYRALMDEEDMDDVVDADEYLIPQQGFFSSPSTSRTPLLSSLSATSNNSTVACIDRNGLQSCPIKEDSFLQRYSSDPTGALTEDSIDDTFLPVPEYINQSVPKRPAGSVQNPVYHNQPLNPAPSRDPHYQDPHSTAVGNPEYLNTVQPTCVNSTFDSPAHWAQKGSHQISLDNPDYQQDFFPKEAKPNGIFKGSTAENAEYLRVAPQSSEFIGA
T1 sequence (P00533 25-1210 T790M/C797S/L858R): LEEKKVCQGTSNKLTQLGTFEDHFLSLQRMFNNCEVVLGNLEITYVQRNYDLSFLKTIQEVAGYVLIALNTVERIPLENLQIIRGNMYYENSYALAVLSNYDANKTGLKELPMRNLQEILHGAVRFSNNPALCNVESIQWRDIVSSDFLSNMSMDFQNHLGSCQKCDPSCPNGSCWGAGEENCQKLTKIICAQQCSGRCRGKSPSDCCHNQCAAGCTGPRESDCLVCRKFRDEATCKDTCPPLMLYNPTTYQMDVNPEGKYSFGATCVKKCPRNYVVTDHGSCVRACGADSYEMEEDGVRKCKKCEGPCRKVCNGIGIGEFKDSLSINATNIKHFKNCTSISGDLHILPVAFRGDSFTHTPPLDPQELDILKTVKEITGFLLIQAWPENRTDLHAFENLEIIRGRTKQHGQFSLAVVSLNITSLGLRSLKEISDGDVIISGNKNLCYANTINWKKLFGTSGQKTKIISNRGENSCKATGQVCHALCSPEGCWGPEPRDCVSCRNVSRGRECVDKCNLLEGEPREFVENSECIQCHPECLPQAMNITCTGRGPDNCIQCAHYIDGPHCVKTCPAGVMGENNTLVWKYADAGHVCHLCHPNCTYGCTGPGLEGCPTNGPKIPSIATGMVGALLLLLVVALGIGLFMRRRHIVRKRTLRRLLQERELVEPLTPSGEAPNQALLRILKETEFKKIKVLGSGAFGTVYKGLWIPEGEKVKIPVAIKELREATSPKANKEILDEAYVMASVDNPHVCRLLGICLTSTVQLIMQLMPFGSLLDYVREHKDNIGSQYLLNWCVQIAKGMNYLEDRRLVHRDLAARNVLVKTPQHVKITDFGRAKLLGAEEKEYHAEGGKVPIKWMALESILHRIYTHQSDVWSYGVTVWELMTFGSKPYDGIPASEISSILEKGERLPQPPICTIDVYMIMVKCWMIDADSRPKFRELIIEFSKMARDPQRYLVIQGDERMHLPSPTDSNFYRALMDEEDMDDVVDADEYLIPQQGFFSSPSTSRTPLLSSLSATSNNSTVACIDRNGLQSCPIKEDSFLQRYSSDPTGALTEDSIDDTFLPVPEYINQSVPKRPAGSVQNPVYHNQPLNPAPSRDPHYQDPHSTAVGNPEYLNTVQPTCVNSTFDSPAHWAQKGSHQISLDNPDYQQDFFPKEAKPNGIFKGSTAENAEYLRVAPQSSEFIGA

Degradation H1975 # 25-LTC [1] | Degradation H1975 # 28 DTC [2] | SMILES
78.6 | 80.6 | Cc1cc2cc(n1)-c1cnn(C)c1OC[C@H]1C[C@@H](CN3/C(=N/C2=O)Nc2ccc(N4CCN(C5CCN(c6ccc(C7CCC(=O)NC7=O)nc6)CC5)C[C@H]4C)cc23)C1 (stereo partly drawn) [Example 7, 3-(5-(4-((R)-4-((7^1s,7^3S,E)-1^1,2^6-dimethyl-3-oxo-5^2,5^3-dihydro-1^1H,5^1H-9-oxa-4-aza-5(2,1)-benzo[d]imidazola-2(2,4)-pyridina-1(4,5)-pyrazola-7(1,3)-cyclobutanacyclononaphane-5^6-yl)-3-methylpiperazin-1-yl)piperidin-1-yl)pyridin-2-yl)piperidine-2,6-dione]
64.0 | 71.5 | Cc1cc2cc(n1)-c1cnn(C)c1OC[C@H]1C[C@@H](CN3/C(=N/C2=O)Nc2ccc(N4CCN([C@H]5C[C@@H](Nc6cc(F)c([C@H]7CCC(=O)NC7=O)c(F)c6)C5)CC4)cc23)C1 (single isomer, unassigned) [Example 16]
89.6 | 84.7 | COC[C@H]1CN(c2ccc3c(c2)N2C[C@H]4C[C@@H](COc5c(cnn5C)-c5cc(cc(C)n5)C(=O)/N=C/2N3)C4)CCN1C1CCN(c2cc(F)c([C@H]3CCC(=O)NC3=O)c(F)c2)CC1 [Example 27, (R)-3-(4-(4-((R)-4-((7^1s,7^3S,E)-1^1,2^6-dimethyl-3-oxo-5^2,5^3-dihydro-1^1H,5^1H-9-oxa-4-aza-5(2,1)-benzo[d]imidazola-2(2,4)-pyridina-1(4,5)-pyrazola-7(1,3)-cyclobutanacyclononaphane-5^6-yl)-2-(methoxymethyl)piperazin-1-yl)piperidin-1-yl)-2,6-difluorophenyl)piperidine-2,6-dione]
85.9 | 72.9 | Cc1cc2cc(n1)-c1cnn(C)c1OC[C@H]1C[C@@H](CN3/C(=N/C2=O)Nc2ccc(N4CCN(C5CCN(c6ccc(C7CCC(=O)NC7=O)nc6)CC5)C(=O)C4)cc23)C1 (stereo partly drawn) [Example 35, 3-(5-(4-(4-((7^1s,7^3s,E)-1^1,2^6-dimethyl-3-oxo-5^2,5^3-dihydro-1^1H,5^1H-9-oxa-4-aza-5(2,1)-benzo[d]imidazola-2(2,4)-pyridina-1(4,5)-pyrazola-7(1,3)-cyclobutanacyclononaphane-5^6-yl)-2-oxopiperazin-1-yl)piperidin-1-yl)pyridin-2-yl)piperidine-2,6-dione]
92.9 | 92.2 | Cc1cc2cc(n1)-c1cnn(C)c1OC[C@H]1C[C@@H](CN3/C(=N/C2=O)Nc2ccc(N4CCC(N5CCN(c6cnc(C7CCC(=O)NC7=O)cc6C)CC5)CC4)cc23)C1 (stereo partly drawn) [Example 5, 3-(5-(4-(1-((7^1s,7^3s,E)-1^1,2^6-dimethyl-3-oxo-5^2,5^3-dihydro-1^1H,5^1H-9-oxa-4-aza-5(2,1)-benzo[d]imidazola-2(2,4)-pyridina-1(4,5)-pyrazola-7(1,3)-cyclobutanacyclononaphane-5^6-yl)piperidin-4-yl)piperazin-1-yl)-4-methylpyridin-2-yl)piperidine-2,6-dione]
85.2 | 75.2 | Cc1cc2cc(n1)-c1cnn(C)c1OC[C@H]1C[C@@H](CN3/C(=N/C2=O)Nc2ccc(N(C)C4CC5(C4)CN(C4CCN(c6ccc(C7CCC(=O)NC7=O)nc6C)CC4)C5)cc23)C1 (stereo partly drawn) [Example 112, 3-(5-(4-(6-(((7^1s,7^3s,E)-1^1,2^6-dimethyl-3-oxo-5^2,5^3-dihydro-1^1′H,5^1H-9-oxa-4-aza-5(2,1)-benzo[d]imidazola-2(2,4)-pyridina-1(4,5)-pyrazola-7(1,3)-cyclobutanacyclononaphane-5^6-yl)(methyl)amino)-2-azaspiro[3.3]heptan-2-yl)piperidin-1-yl)-6-methylpyridin-2-yl)piperidine-2,6-dione]
